The values below come from patent publication US20240026278A1, “BLOOD CELL LYSING AGENT FOR ISOLATING BACTERIA FROM BLOOD CULTURE” (Becton, Dickinson and Company, priority 2020, published 2024).

The experiment deals with blood cells. In words: Lysis of blood cells by the lysing agent. The note with it: in lysing buffer. The format is cell-based. The text has this:
Currently available methods employ saponin to lyse blood cells for isolating bacteria from positive blood cultures. […] It is probable that this identification failure is due to the blood cells not being completely lysed and/or a high content of blood debris. […] In some embodiments, SDA is very water soluble. An advantage of using SDA as the lysing agent for isolating bacteria from positive blood culture is that the MALDI score for challenging species such as Staphylococcus epidermidis can be higher than the cutoff value, leading to correct species identification. Moreover, processing times using SDA versus saponin can be nearly identical.
FIG. 1 depicts exemplary data related to MALDI scores for Staphylococcus epidermidis isolated from positive blood cultures using different lysing agents, namely saponin (SAP), Nonoxynol-9 (Somatic Cell Digestion Agent (SDA)), and a combination thereof. The concentration of each lysing agent was used at 0.52% (w/w). The score for acceptance of identification is greater than or equal to 1.8 for the Sepsityper database and 2.0 for the standard database. […] SDA is generally used as a spermicide by interacting with the lipids in the membranes of the acrosome and the midpiece of the sperm.

As to Nonoxynol-9 [SDA], the blood cell lysis entry was “lyse blood cells very efficiently”.
